# Like-named read-outs stand apart in the source and are kept apart here.
# Legend:
# M₁ receptors = target: T1, M₁ receptors (Rattus norvegicus, UniProt P08482); assay: ³H-pirenzepine radioligand binding assay, rat cerebral cortex; settings: for selectivity for M₁ than for M₃ receptors: M₁ (rat cerebral cortex) versus M₃ (rabbit iris + ciliary body) binding; for Ki: read-out: M1 Ki
# T1 construct: M₁ receptors in rat cerebral cortex were labeled with ³H-pirenzepine; from tissue; host or cells: rat cerebral cortex
# T1 sequence (P08482 1-460): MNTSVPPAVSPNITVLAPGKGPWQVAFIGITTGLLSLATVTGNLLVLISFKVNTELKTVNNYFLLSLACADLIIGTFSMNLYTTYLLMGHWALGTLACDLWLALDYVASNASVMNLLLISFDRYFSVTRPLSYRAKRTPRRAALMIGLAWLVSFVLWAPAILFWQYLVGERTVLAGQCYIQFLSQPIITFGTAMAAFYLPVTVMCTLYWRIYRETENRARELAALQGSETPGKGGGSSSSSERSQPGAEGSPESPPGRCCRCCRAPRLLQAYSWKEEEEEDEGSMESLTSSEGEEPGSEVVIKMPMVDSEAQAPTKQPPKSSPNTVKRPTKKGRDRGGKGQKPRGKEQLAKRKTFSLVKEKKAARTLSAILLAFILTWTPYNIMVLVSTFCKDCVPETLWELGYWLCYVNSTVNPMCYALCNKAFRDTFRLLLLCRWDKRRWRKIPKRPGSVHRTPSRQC
# M₂ receptors = target: T2, M₂ receptors (Rattus norvegicus, UniProt P10980); assay: ³H-AFDX-384 radioligand binding assay, rat heart; settings: ³H AFDX-384 binding; for Ki: mean of 3-7 determinations ± SEM, read-out: M2 Ki
# T2 construct: ³H-AFDX-384 labeled M₂ receptors in rat heart; from tissue; host or cells: rat heart
# T2 sequence (P10980 1-466): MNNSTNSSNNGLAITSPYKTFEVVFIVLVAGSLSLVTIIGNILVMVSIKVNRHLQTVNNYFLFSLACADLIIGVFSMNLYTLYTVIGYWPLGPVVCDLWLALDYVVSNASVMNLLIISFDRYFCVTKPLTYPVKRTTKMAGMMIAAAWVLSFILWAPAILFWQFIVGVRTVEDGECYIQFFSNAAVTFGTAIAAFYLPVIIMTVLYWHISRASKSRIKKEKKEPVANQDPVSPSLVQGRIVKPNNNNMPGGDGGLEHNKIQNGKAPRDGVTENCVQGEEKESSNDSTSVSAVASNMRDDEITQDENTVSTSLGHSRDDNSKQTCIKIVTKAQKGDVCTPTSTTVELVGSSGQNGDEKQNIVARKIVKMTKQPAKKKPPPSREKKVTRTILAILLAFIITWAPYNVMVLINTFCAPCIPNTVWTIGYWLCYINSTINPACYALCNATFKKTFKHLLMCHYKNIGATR
# M₃ receptors = target: T3, M₃ receptors (Oryctolagus cuniculus, UniProt G1U308); assay: ³H-QNB radioligand binding assay, rabbit iris + ciliary body (minus ciliary processes)
# T3 construct: M₃ receptors in rabbit iris + ciliary body; from tissue; host or cells: rabbit iris + ciliary body (minus ciliary processes)
# T3 sequence (G1U308 1-599): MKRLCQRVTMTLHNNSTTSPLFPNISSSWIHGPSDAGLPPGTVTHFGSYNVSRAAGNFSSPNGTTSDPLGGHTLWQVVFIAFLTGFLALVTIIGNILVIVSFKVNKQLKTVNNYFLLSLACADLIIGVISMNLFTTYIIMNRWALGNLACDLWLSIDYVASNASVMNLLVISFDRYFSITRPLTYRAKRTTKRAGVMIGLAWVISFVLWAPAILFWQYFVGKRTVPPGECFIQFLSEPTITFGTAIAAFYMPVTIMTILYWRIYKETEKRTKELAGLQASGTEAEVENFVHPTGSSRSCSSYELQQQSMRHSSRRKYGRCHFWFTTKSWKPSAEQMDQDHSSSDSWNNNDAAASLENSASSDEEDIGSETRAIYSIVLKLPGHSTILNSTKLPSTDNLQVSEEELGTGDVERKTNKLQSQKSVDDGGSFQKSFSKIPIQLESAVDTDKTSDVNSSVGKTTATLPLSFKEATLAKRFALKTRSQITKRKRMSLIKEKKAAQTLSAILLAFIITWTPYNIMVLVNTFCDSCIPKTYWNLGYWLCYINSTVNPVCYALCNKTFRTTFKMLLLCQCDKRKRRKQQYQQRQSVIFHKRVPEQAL
# [1] = system: female Dunkin Hartley albino guinea pigs; assay: guinea pig maximization test (sensitization); assay type: in vivo; settings: challenge phase, readings on days 24 and 25
# Method: The guinea pig maximization test is required by the U.S. Food and Drug Administration of all drugs intended for ophthalmic administration. […] In Phase I, which is the induction phase, on day 1 two intradermal injections at the highest generally tolerated concentration of the test material were administered in the shaved intercapsular area (O.1ml of the test agent in a 50:50 mixture of Freund's complete adjuvant and distilled water). On day 7, approximately 400mg of a mixture of 10% sodium laurel sulfate in petrolatum was applied to the shaved intercapsular area. On day 8, 400mg of a mixture of the test compound in petrolatum was applied, on a 2 x 4 cm piece of Whatman paper to the shaved intercapsular area, along with Blenderm tape.
# In Phase II, which is the challenge phase, on day 22, 200mg of petrolatum was applied to the shaved right flank, while 200mg of test compound at the highest non-irritant concentration (micronized in petrolatum) was applied to the shaved left flank, with each application being occluded for 24 hours.
# Form-deprivation myopia = assay: form-deprivation myopia model in chicks (eyelid suture); assay type: in vivo, White Leghorn chicks; settings: expected from M₁ potency relative to pirenzepine; no data reported
# Method: Form-deprivation myopia is induced in day-old White Leghorn chicks under aseptic conditions and other anesthesia by eyelid suture to one eye. The chicks are maintained on a 12-hour light:dark cycle. […] Drug is injected daily subconjunctivally during the light cycle. At two weeks of age the animals are sacrificed and axial and equatorial dimensions of unfixed eyes are measured with vernier calipers independently by two observers.
# [2] = system: axial enlargement of the eye; settings: ocular administration under image deprivation; cited from earlier work
# myopia = settings: 1.0% atropine applied topically at bedtime, treated eye, one year per eye; cited from earlier work
# [3] = ³H Pirenzepine binding, rat cerebral cortex
# [4] = ³H-QNB binding, rabbit iris + ciliary body (minus ciliary processes)
# [5] = ³H-QNB binding, rabbit iris + ciliary body (minus ciliary processes), mean of 3-7 determinations ± SEM, read-out: M3 Ki
SMILES,selectivity for M₁ than for M₃ receptors (M₁ receptors) [fold],Ki (M₁ receptors) [nM],M1 nH (Hill Coefficient) (M₁ receptors; [3]),M2 nH (Hill Coefficient) (M₂ receptors),Ki (M₂ receptors) [nM],M3 nH (Hill Coefficient) (M₃ receptors; [4]),Ki (M₃ receptors; [5]) [nM],grade of skin reaction ([1]; in any test animal),effectiveness in myopia therapy (Form-deprivation myopia),further results
"CN1CCC(C(=O)N2c3ccccc3C(=O)Nc3cccnc32)CC1 [Nuvenzepine, 11-(1-Methylpiperidin-4-carbonyl)-5,11-dihydro-6H -pyrido[2,3-b][1,4]benzodiazepin-6-one]",20,1.5,0.9,1.03,248,0.80,29.7,0,at least as effective as pirenzepine,
"CN1CCN(CC(=O)N2c3ccccc3C(=O)Nc3cccnc32)CC1 [Pirenzepine, reference compound]",,,,,,,,,,grade of skin reaction ([1]; in six of nine animals): 1; grade of skin reaction ([1]; in two of nine animals): 2
CN1CCc2cccc3c2[C@H]1Cc1ccc(O)c(O)c1-3 [apOmorphine],,,,,,,,,,axial enlargement of the eye [2]: inhibit or actually prevent
"CN1CCCC(C(=O)N2c3ccccc3C(=O)Nc3cccnc32)C1 (centres unmarked) [Rispenzepine, 11-(1-Methylpiperidin-3-carbonyl)-5,11-dihydro-6H -pyrido[2,3-b][1,4]benzodiazepin-6-one]",15,2.61,0.9,1.00,226,0.84,38.9,0,at least as effective as pirenzepine,
"CN1[C@@H]2CC[C@H]1C[C@@H](OC(=O)C(CO)c1ccccc1)C2 (some centres unmarked) [Atropine, reference compound]",,,,1.05,,1.1,,,,M1 nH (Hill Coefficient) (M₁ receptors): 1.5; Ki (M₃ receptors): 0.37 nM; progression of the myopia (myopia): halted

# — EP0556947A1, “Use of M1-selective antimuscarinic pyridobenzodiazepinones for the treatment and prevention of axial myopia” (MERCK & CO. INC., priority 1992, dated 1993)
